Values of other authors, collected in publication PMC10005815 (Journal of Medicinal Chemistry, 2023).
Read-outs that look alike come from different tables or passages of the source. * marks the point of attachment. Cbz = O=C(OCc1ccccc1)*

Assays:
HCoV-229E = conditions: for EC50: read-out: HCoV-229E EC50
SARS-CoV-1 M^pro = conditions: for Ki: read-out: SARS-CoV-1 M^pro Ki
TMPRSS2 [1] = test system: TMPRSS2
COVID-19 = conditions: human, in vivo
SARS-CoV-1 [2] = test system: SARS-CoV-1
TMPRSS2 [3] = target: TMPRSS2; remark: listed apart in the source
[4] = test system: SARS-CoV-2 Omicron BA.1 and BA.2; conditions: in vivo
panel of proteases = conditions: read-out: IC50 proteases (selectivity panel)
RdRp from SARS-CoV-2 = conditions: read-out: Predicted Ki for binding to the protein active site
[5] = test system: human mitochondrial RNA polymerase (h-mtRNAP)
[6] = test system: MERS-CoV S protein-mediated cell–cell fusion; conditions: read-out: IC50 in vitro fusion assay (MERS-CoV)
[7] = rat, in vivo
SARS-CoV-1 [8] = conditions: mouse, in vivo
HCoV-OC43 = conditions: read-out: HCoV-OC43 EC90
[9] = buffer
[10] = read-out: SARS-CoV-1 M^pro IC50

## CCc1ccccc1NC(=O)CSC(=O)NNC(=O)[C@H](Cc1c[nH]c2ccccc12)NC(=O)OC(C)(C)C [SID-26681509]
SARS-CoV-2 PsV
  Decrease of SARS-CoV-2 pseudovirion entry: about 76%

## O=C[C@H](C[C@@H]1CCNC1=O)NC(=O)[C@H](Cc1ccccc1)NC(=O)c1cc2ccccc2[nH]1 [18p]
SARS-CoV-2; read-out: SARS-CoV-2 EC50
  EC50: 290 nM

## COc1cccc2[nH]c(C(=O)N[C@@H](CC(C)C)C(=O)N[C@@H](C[C@@H]3CCCNC3=O)C(=O)COC(=O)c3c(C)cc(C)nc3C)cc12 [15l]
HCoV-229E
  EC50: 48 nM
SARS-CoV-2 M^pro; read-out: SARS-CoV-2 M^pro IC50
  IC50: 19 nM

## O=C(On1nnc2ccccc21)c1ccc2[nH]ccc2c1 [compound 8]
SARS-CoV-1 M^pro
  Ki: 7.5 nM

## CCC(C)(C)NC(=O)C(c1ccn(C)c1)N(C(=O)Cn1nnc2ccccc21)c1ccc(NC(C)=O)cc1 (stereo not drawn) [SID24808289]
SARS-CoV-1 M^pro; [10]
  IC50: 6200 nM
SARS-CoV-1 PL^pro
  IC50: > 60000 nM

## CCOc1cc2ncc(C#N)c(Nc3ccc(F)c(Cl)c3)c2cc1NC(=O)/C=C/CN(C)C [pelitinib]
SARS-CoV-2; read-out: EC50 (antiviral)
  EC50: 1250 nM

## N=C(N)Nc1ccc(C(=O)O)cc1 [GBA, 4-guanidinobenzoic acid]
TMPRSS2 [1]
  TMPRSS2 inhibition: inactive

## CCC(CC)COC(=O)[C@H](C)N[P@](=O)(OC[C@H]1O[C@@](C#N)(c2ccc3c(N)ncnn23)[C@H](O)[C@@H]1O)Oc1ccccc1 [remdesivir, Remdesivir]
COVID-19
  Reduction of hospitalization compared to placebo: 87%
Vero E6 cells
  CC50: > 100000 nM
SARS-CoV-2; read-out: SARS-CoV-2 infection IC50
  IC50: 770 nM

## O=C(/C=C/c1ccccc1)N[C@@H](CC1CCCCC1)C(=O)N[C@@H](C[C@@H]1CCNC1=O)C(=O)C(=O)NCc1ccccc1 [11r]
SARS-CoV-1 M^pro; [10]
  IC50: 710 nM
HCoV-229E
  EC50: 1800 nM
MERS-CoV
  S.I. MERS-CoV (CC50/EC50): 1.1 × 10^5
SARS-CoV-1 [2]; read-out: SARS-CoV-1 EC50
  EC50: 2100 nM
HCoV-NL63 M^pro
  IC50: 12300 nM

## N=C(N)c1cccc(C[C@H](NS(=O)(=O)c2cccc(-c3ccc(Cl)cc3Cl)c2)C(=O)N2CCC(CCN)CC2)c1 [I-432]
TMPRSS2 [3]
  Ki: 0.9 nM

## Cbz-Val-Phe-aldehyde [MDL28170]
SARS-CoV-1 [2]; read-out: EC50 neutral red uptake assay
  EC50: 500 nM

## CC(C)C(=O)OC[C@H]1O[C@@H](n2ccc(NO)nc2=O)[C@H](O)[C@@H]1O [Molnupiravir]
[4]
  Effect on virus titers: only reduced the lung virus titers
SARS-CoV-2
  Efficacy in inhibiting SARS-CoV-2 replication relative to remdesivir: 5–10 fold

## CC(C)(C)OC(=O)Nc1cccn([C@@H](CC2CC2)C(=O)N[C@@H](C[C@@H]2CCNC2=O)C(=O)C(=O)NCc2ccccc2)c1=O [13b]
SARS-CoV-1 M^pro; [10]
  IC50: 900 nM
SARS-CoV-1 replicon
  EC50: 1750 nM
SARS-CoV-2; read-out: SARS-CoV-2 EC50
  EC50: 4000 nM

## O=C(Oc1cncc(Cl)c1)c1cccc2[nH]ccc12 [compound 10]
SARS-CoV-1 M^pro; [10]
  IC50: 30 nM
SARS-CoV-1 [2]; read-out: SARS-CoV-1 EC50
  EC50: 6900 nM

## COc1cccc2[nH]c(C(=O)N[C@@H](CC(C)C)C(=O)N[C@@H](C[C@@H]3CCNC3=O)C(=O)CO)cc12 [PF-00835231]
Panel of proteases
  IC50: > 10000 nM
SARS-CoV-1 [2]; read-out: SARS-CoV-1 EC50
  EC50: 4800 nM

## Cc1cc(C(=O)N[C@@H](C)C(=O)N[C@H](C(=O)N[C@@H](CC(C)C)C(=O)N[C@H](/C=C/C(=O)OCc2ccccc2)C[C@@H]2CCNC2=O)C(C)C)no1 [N3]
HCoV-229E M^pro
  Ki: 1670 nM

## COc1ccc2c(c1)[C@@H]1C[C@]1(C(=O)N1[C@@H]3CC[C@H]1CN(C)C3)Cn1c-2c(C2CCCCC2)c2ccc(C(=O)NS(=O)(=O)N(C)C)cc21 [Beclabuvir]
RdRp from SARS-CoV-2
  Ki: ~50 nM

## NC1(C(=O)N[C@@H](CCO)c2ccc(Cl)cc2)CCN(c2ncnc3[nH]ccc23)CC1 [Capivasertib]
Vero cells
  50% cytotoxicity concentration: 82 µM

## CN(C)CCCSc1ccccc1NC(=O)/C=C/c1ccccc1 [cinanserin]
SARS-CoV-1 M^pro; read-out: M^pro IC50
  IC50: ~5000 nM
HCoV-229E; read-out: HCoV-229E IC50 (antiviral assay)
  IC50: 19000 nM

## CCOC(=O)[C@H]1OC1C(=O)N[C@@H](CC(C)C)C(=O)NCCC(C)C (stereo partly drawn) [E64D]
SARS-CoV-2 PsV
  Reduction in the entry of SARS-CoV-2 PsV: 92.5%

## N#C[C@@]1(c2ccc3c(N)ncnn23)O[C@H](COP(=O)(O)OP(=O)(O)OP(=O)(O)O)[C@@H](O)[C@H]1O [remdesivir-TP]
[5]
  Selectivity with respect to ATP: up to 500 fold

## COc1ccc(C(=O)Nc2cccc(C(F)(F)F)c2)cc1Nc1nc(-c2cccnc2)c2[nH]ccc2n1 [XMU-MP-7]
Akt
  Kd: 6.4 nM

## N=C(N)Nc1ccc(C(=O)Oc2ccc3cc(C(=N)N)ccc3c2)cc1 [Nafamostat]
[6]
  IC50: ~1 nM

## Cc1cccc(/C=N/Nc2cc(N3CCOCC3)nc(OCCc3ccccn3)n2)c1 [Apilimod]
Ebola
  Concentration preventing EVD infection of several cell lines: ~0.1 µM

## CC(C)(C)[C@H](NC(=O)C(F)(F)F)C(=O)N1C[C@H]2[C@@H]([C@H]1C(=O)N[C@H](C#N)C[C@@H]1CCNC1=O)C2(C)C [PF-07321332]
[4]
  Effect on virus titers: only reduced the lung virus titers

## O=C(O)C1=CC(=C(c2ccc(O)c(C(=O)O)c2)c2ccc(O)c(C(=O)O)c2)C=CC1=O [ATA, Aurintricarboxylic acid]
SARS-CoV-1 [2]
  Inhibition of mRNA transcription with respect to control: more than 1000 fold
  SARS-CoV-1 replication IC50: 200 µg/mL

## COc1cccc2[nH]c(C(=O)N[C@@H](CC(C)C)C(=O)N[C@@H](C[C@@H]3CCNC3=O)C(=O)c3nc4ccccc4s3)cc12 [5h]
SARS-CoV-1 M^pro
  Ki: 6.3 nM
[7]
  Bioavailability: low bioavailability
SARS-CoV-2 M^pro; read-out: SARS-CoV-2 M^pro Ki
  Ki: 17.6 nM

## CN(C)C(=O)COC(=O)Cc1ccc(OC(=O)c2ccc(NC(=N)N)cc2)cc1 [Camostat]
SARS-CoV-1 [8]
  Survival rate to SARS-CoV-1: ~60%
MERS-CoV
  Reduction of MERS-CoV production: 270 fold

## CC(OC(C)(C)C)[C@H](NC(=O)OCc1ccccc1)C(=O)N[C@@H](CC1CCCCC1)C(=O)N[C@H](C=O)C[C@@H]1CCNC1=O (stereo partly drawn) [TG-0205221]
SARS-CoV-1 M^pro
  Ki: 53 nM
HCoV-229E M^pro
  Ki: 68 nM

## Cn1cnc(Cn2c(=O)[nH]/c(=N\c3cc4cn(C)nc4cc3Cl)n(Cc3cc(F)c(F)cc3F)c2=O)n1 [S-217622]
HCoV-229E
  EC50: 5500 nM
Vero E6/TMPRSS2 cells
  CC50: > 100000 nM
[4]
  Effect on virus titers: additionally decreased the virus titers in the nasal turbinates
HCoV-OC43
  EC90: 74 nM
SARS-CoV-2; read-out: SARS-CoV-2 WT strain EC50
  EC50: 370 nM
MERS-CoV; read-out: MERS-CoV EC50
  EC50: 1400 nM
SARS-CoV-1 [2]; read-out: SARS-CoV-1 EC50
  EC50: 210 nM

## O=C(Oc1cncc(Br)c1)c1ccco1 [compound 39]
SARS-CoV-1 M^pro; [10]
  IC50: 50 nM
[9]
  T1/2: [drawing 13] 39 SARS-CoV-1 M^pro IC50= 50 nM T1/2 = 119 h, phosphate buffer pH= 7.5
